In patent US12492212B2, “Substituted pyrazolecarboxamides as sting activators” (Shanghai Institute of Materia Medica, Chinese Academy of …, priority 2019, dated 2025):

Experiments:
STING [1] = target: T1, STING (Homo sapiens, UniProt Q86WV6); test: IFN β release from human PBMC cells stimulated by compound (ELISA); format: cell-based; conditions: LPS 10 ng/ml, cultured overnight
T1 construct: host or cells: human PBMCs
Experimental: Example 23: Activation Effect of Compound on Type I Interferon Pathway (ISG) Produced by Human Peripheral Blood Mononuclear Cell Line PBMC Cells
In this experiment, the function of STING agonist was evaluated by detecting the changes of type I interferon IFN β produced by compound stimulating human peripheral blood mononuclear cell line PBMC cells (AllCells, Cat #: PB005F). Before use, cryopreserved PBMCs were thawed in RPMI1640 medium and resuscitated overnight. The test compound was dissolved into DMSO and formulated as a mother liquor with a concentration of 10 mM. Before testing, the compound was diluted to 100 times of the working concentration (the working concentration was 30, 10, 3.33, 1.11, 0.370, 0.123, 0.0412, 0.0137 uM, respectively). PBMCs were collected and adjusted to a cell concentration of 5×10^5/ml. LPS was added to PBMCs at a final concentration of 10 ng/ml. In the 96-well cell culture plate, 200 ul PBMCs (1×10^5 cells per well) were added to each well. Then 2 ul diluted compound per well (duplicate wells, the final concentration of DMSO in each well was 1%) was added. Then a pipette was used to carefully mix the cells and the compound evenly. 2 ul DMSO (1% of final concentration) was added to the negative control. The cells were cultured overnight in an incubator at 37° C. The cell culture supernatant was collected to detect the concentration of type I interferon IFN β. The concentration of IFNβ was determined by ELISA kit of solid-phase antibody R&D-MAB8144-100 and detecting antibody R&D-MAB8143-100 (Biotinylated), converted into […] concentration according to standard curve, and EC50 value was calculated by GraphPad 5.0 fitting calibration curve.

STING [2] = target: T2, STING (Homo sapiens, UniProt Q86WV6, G230A/H232R/R293Q/R71H); test: Type I interferon pathway (ISG) luciferase reporter in human THP1-Dual cells; format: cell-based; conditions: test concentration 10 μM, 24 hours, ratio of LUM of compound to LUM of blank control
T2 construct: THP1-Dual cells in the experiment were purchased from InvivoGen company; host or cells: THP1-Dual cells
T2 sequence (Q86WV6 whole entry R71H/G230A/H232R/R293Q): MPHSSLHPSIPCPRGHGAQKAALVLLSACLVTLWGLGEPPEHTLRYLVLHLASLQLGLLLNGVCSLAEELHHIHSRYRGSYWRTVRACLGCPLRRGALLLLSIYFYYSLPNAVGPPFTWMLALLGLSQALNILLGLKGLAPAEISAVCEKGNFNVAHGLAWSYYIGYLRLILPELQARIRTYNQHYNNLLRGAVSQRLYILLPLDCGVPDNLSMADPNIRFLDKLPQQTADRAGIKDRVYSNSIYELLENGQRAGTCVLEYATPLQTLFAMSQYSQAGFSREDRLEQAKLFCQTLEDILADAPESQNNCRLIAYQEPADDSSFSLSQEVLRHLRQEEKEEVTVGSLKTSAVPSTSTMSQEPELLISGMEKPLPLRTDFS
Experimental: In this experiment, the ability of compounds to activate STING was evaluated by detecting the ability of compounds to stimulate the production of IFN-β in human peripheral blood mononuclear cell line THP1-Dual cells. THP1-Dual cells in the experiment were purchased from InvivoGen company. […] THP1-Dual cells were counted, cell concentration was adjusted to be 1×10^6/ml, and 180 μl of cells was added to each well for incubation. […] In addition, the blank group was added with 200 μl of culture solution. After 24 hours, 20 μl of culture solution was took from each well to a new bottom transparent 96-well plate, and 50 μl luciferase detection reagent QUANTI-Luc™ was added, the fluorescence value was immediately determined. […] The data were described by the ratio of the LUM of compound to the LUM of blank control.

CT26 colon cancer = CT26 colon cancer subcutaneous transplantation tumor model; format: in vivo, Balb/C female mice; conditions: CT26, Balb/C mice, 0.1 mg/kg and 0.3 mg/kg, 1st, 4th and 7th days after grouping, vs negative control, FIG. 1
Experimental: Example 25: The Efficacy Study of the Compound of the Present Invention in the CT26 Colon Cancer Subcutaneous Transplantation Tumor Model
In this experiment, 4-6 weeks old Balb/C female mice were used, and CT26 cells (2.5*10^5) were injected subcutaneously into axils of each mouse. The tumor growth of mice was observed. Grouping was started when the tumor volume was 50-100 mm^3. The compound 19 of the present invention and the negative control were administrated. The compound 19 of the present invention and the negative control were administrated on 1st, 4th and 7th days after grouping. The dosage of the compound 19 in each group was 0.1 mg/kg and 0.3 mg/kg respectively. The experimental results were evaluated in the form of tumor volume growth curves, and the experimental results were shown in FIG. 1.

EMT6 breast cancer = EMT6 breast cancer orthotopic transplantation tumor model; format: in vivo, Balb/C female mice; conditions: EMT6, Balb/C mice, 1 mg/kg, 1st, 4th and 9th days after grouping, vs negative control, FIG. 2
Experimental: Example 26: The Efficacy Study of the Compound of the Present Invention in the EMT6 Breast Cancer Orthotopic Transplantation Tumor Model
In this experiment, 4-6 weeks old Balb/C female mice were used, and EMT6 cells (2.5*10^5) were injected subcutaneously into axils of each mouse. The tumor growth of mice was observed. Grouping was started when the tumor volume was 50-100 mm^3. The compound 19 of the present invention and the negative control were administrated on 1st, 4th and 9th days after grouping. The dosage of compound 19 of the present invention was 1 mg/kg. The experimental results were evaluated in the form of tumor volume growth curves, and the experimental results were shown in FIG. 2.

T1 sequence (Q86WV6 whole entry H232R): as the sequence (Q86WV6 whole entry R71H/G230A/H232R/R293Q) above, with H71R, A230G, Q293R counted along it

Fold change (Ratio to control) (STING [2]) | Structure (SMILES) | also measured
 | CCn1nc(C)cc1C(=O)Nc1nc2cc(C(N)=O)cc(OC)c2n1CCCCn1c(NC(=O)c2cc(C)nn2CC)nc2cc(C(N)=O)c3c(c21)CC(C)(C)O3 [Example 1, 1-(4-(5-carbamoyl-2-(1-ethyl-3-methyl-1H-pyrazol-5-formamido)-7-methoxy-1H-benzo[d]imidazol-1-yl)butyl)-2-(1-ethyl-3-methyl-1H-pyrazol-5-formamido)-7,7-dimethyl-7,8-dihydro-1H-benzofuran[4,5-d]imidazol-5-formamide] | EC50 (STING [1]): 362 nM
53.15 | CCn1nc(C)cc1C(=O)Nc1nc2cc(C(N)=O)cc(OC)c2n1CCCCn1c(NC(=O)c2cc(C)nn2CC)nc2cc(C(N)=O)c3oc(C)cc3c21 [Example 2] | EC50 (STING [1]): 103 nM
62.82 | CCn1nc(C)cc1C(=O)Nc1nc2cc(C(N)=O)cc(OC)c2n1C/C=C/Cn1c(NC(=O)c2cc(C)nn2CC)nc2cc(C(N)=O)c3oc(C)cc3c21 [Example 3, (E)-1-(4-(5-carbamoyl-2-(1-ethyl-3-methyl-1H-pyrazol-5-formamido)-7-methoxy-1H-benzo[d]imidazol-1-yl)but-2-en-1-yl)-2-(1-ethyl-3-methyl-1H-pyrazol-5-formamido)-7-methyl-1H-benzofuran[4,5-d]imidazol-5-formamide] | EC50 (STING [1]): 4.92 nM
66.65 | COc1cc(C(N)=O)cc2nc(NC(=O)c3cc(C)nn3CC3CC3)n(C/C=C/Cn3c(NC(=O)c4cc(C)nn4CC4CC4)nc4cc(C(N)=O)c5oc(C)cc5c43)c12 [Example 5] | 
86.31 | COc1cc(C(N)=O)cc2nc(NC(=O)c3cc(C)nn3CC(F)(F)F)n(C/C=C/Cn3c(NC(=O)c4cc(C)nn4CC(F)(F)F)nc4cc(C(N)=O)c5oc(C)cc5c43)c12 [Example 6] | 
148.64 | C=CCn1nc(C)cc1C(=O)Nc1nc2cc(C(N)=O)cc(OCCCO)c2n1C/C=C/Cn1c(NC(=O)c2cc(C)nn2CC=C)nc2cc(C(N)=O)c3oc(C)cc3c21 [Example 9] | 
13.14 | C#CCn1nc(C)cc1C(=O)Nc1nc2cc(C(N)=O)cc(OCCCO)c2n1C/C=C/Cn1c(NC(=O)c2cc(C)nn2CC#C)nc2cc(C(N)=O)c3oc(C)cc3c21 [Example 10] | 
175.49 | C=CCn1nc(C)cc1C(=O)Nc1nc2cc(C(N)=O)cc(OC3COC3)c2n1C/C=C/Cn1c(NC(=O)c2cc(C)nn2CC=C)nc2cc(C(N)=O)c3oc(C)cc3c21 [Example 18] | 
90.48 | CCn1nc(C)cc1C(=O)Nc1nc2cc(C(N)=O)cc(OCCCN3CCOCC3)c2n1C/C=C/Cn1c(NC(=O)c2cc(C)nn2CC)nc2cc(C(N)=O)c3oc(C)cc3c21 [Example 19] | anti-tumor effect (tumor volume growth curves) (CT26 colon cancer): significant anti-tumor effect; anti-tumor effect (tumor volume growth curves) (EMT6 breast cancer): significant anti-tumor effect
159.71 | Cc1cc(C(=O)Nc2nc3cc(C(N)=O)cc(OCCCN4CCOCC4)c3n2C/C=C/Cn2c(NC(=O)c3cc(C)nn3CC(F)(F)F)nc3cc(C(N)=O)c4oc(C)cc4c32)n(CC(F)(F)F)n1 [Example 20] | 
80.54 | CCn1nc(C)cc1C(=O)Nc1nc2cc(C(N)=O)ccc2n1C/C=C/Cn1c(NC(=O)c2cc(C)nn2CC)nc2cc(C(N)=O)cc(OCCCO)c21 [GSK compound 1, reference compound] | 
70.83 | CCn1nc(C)cc1C(=O)Nc1nc2cc(C(N)=O)cc(OC)c2n1C/C=C/Cn1c(NC(=O)c2cc(C)nn2CC)nc2cc(C(N)=O)cc(OCCCN3CCOCC3)c21 [GSK compound 3, reference compound] | 
